Experimental data as given in patent US20200339625A1, “NOVEL RADIOMETAL-BINDING COMPOUNDS FOR DIAGNOSIS OR TREATMENT OF PROSTATE SPECIFIC MEMBRANE ANTIGEN-EXPRESSING CANCER” (PROVINCIAL HEALTH SERVICES AUTHORITY, priority 2017, published 2020).

Legend:
[1] = test system: mice bearing LNCaP tumor xenografts; assay: PET/CT imaging of 68Ga-labeled compounds; type: in vivo
Procedure: 2.17 PET/CT Imaging and Biodistribution
(§1) Imaging and biodistribution experiments were performed using NODSCID 1L2RyKO male mice. Mice were anesthetized by inhalation with 2% isoflurane in oxygen, and implanted subcutaneously with 1×10^7 LNCaP cells behind left shoulder. Mice were imaged or used in biodistribution studies when the tumor grew up to reach 5-8 mm in diameter during 5-6 weeks.
PET imaging experiments were conducted using Siemens Inveon micro PET/CT scanner. Each tumor bearing mouse was injected 6-8 MBq of 68Ga-labeled tracer through the tail vein under anesthesia (2% isoflurane in oxygen). The mice were allowed to recover and roam freely in their cage. After 50 min, the mice were sedated again with 2% isoflurane in oxygen inhalation and positioned in the scanner. A 10-min CT scan was conducted first for localization and attenuation correction after segmentation for reconstructing the PET images. Then, a 10-min static PET imaging was performed to determined uptake in tumor and other organs. The mice were kept warm by a heating pad during acquisition. For imaging studies acquired at 3 h post-injection (p.i.), the mice were placed in the micro PET/CT scanner at 170 min p.i. Then, the CT acquisitions were conducted as described above, a 15-min static PET imaging was performed to determined uptake in tumor and other organs.

[2] = test system: mice bearing PSMA-expressing LNCAP cancer xenografts; assay: Biodistribution of 68Ga-labeled compounds; type: in vivo
Procedure: as §1
For biodistribution studies, the mice were injected with the radiotracer as described above. At predetermined time points (1 or 3 h), the mice was anesthetized with 2% isoflurane inhalation, and euthanized by CO2 inhalation. Blood was withdrawn immediately from the heart, and the organs/tissues of interest were collected. The collected organs/tissues were weighed and counted using an automatic gamma counter. The uptake in each organ/tissue was normalized to the injected dose using a standard curve, and expressed as the percentage of the injected dose per gram of tissue (% ID/g).

`O=C([O-])CN1CCN(CC(=O)[O-])CCN(CC(=O)NCCCC[C@H](NC(=O)CNC(=O)CCCc2ccc(Br)cc2)C(=O)NC[C@H]2CC[C@H](C(=O)N[C@@H](Cc3ccc4ccccc4c3)C(=O)NCCCC[C@H](NC(=O)N[C@@H](CCC(=O)O)C(=O)O)C(=O)O)CC2)CCN(CC(=O)[O-])CC1.[68Ga+3]` [^68Ga-HTK03058] was tested, and the “change of tumor uptake from 1 h to 3 h post-injection” value ([1]; PET/CT images) was “uptake in tumors increases over time”, the “blood retention (qualitative)” value ([1]; PET/CT images at 1 h and 3 h post-injection, comparison within the figure) was “some extent of blood retention” and the Adrenal glands uptake ([2]; 1 h post-injection) was 4.20 ± 1.21 % ID/g. For the same compound, the Blood uptake ([2]; 1 h post-injection) was 26.7 ± 3.02 % ID/g, the Bone uptake ([2]; 1 h post-injection) was 1.04 ± 0.26 % ID/g and the Brain uptake ([2]; 1 h post-injection) was 0.36 ± 0.06 % ID/g. For the same compound, the Fat uptake ([2]; 1 h post-injection) was 2.13 ± 0.57 % ID/g, the Heart uptake ([2]; 1 h post-injection) was 6.09 ± 0.97 % ID/g and the Intestine uptake ([2]; 1 h post-injection) was 1.64 ± 0.27 % ID/g. The Kidneys uptake ([2]; 1 h post-injection) was 14.7 ± 2.13 % ID/g, the Lacrimal uptake ([2]; 1 h post-injection) was 0.69 ± 0.26 % ID/g and the Liver uptake ([2]; 1 h post-injection) was 3.87 ± 1.00 % ID/g. It also gave a Lungs uptake ([2]; 1 h post-injection) of 10.2 ± 2.20 % ID/g, a Muscle uptake ([2]; 1 h post-injection) of 1.37 ± 0.17 % ID/g and a Pancreas uptake ([2]; 1 h post-injection) of 2.00 ± 0.17 % ID/g. For the same compound, the Salivary uptake ([2]; 1 h post-injection) was 3.90 ± 0.70 % ID/g, the Seminal uptake ([2]; 1 h post-injection) was 1.31 ± 0.38 % ID/g and the Spleen uptake ([2]; 1 h post-injection) was 3.13 ± 1.05 % ID/g. For the same compound, the Stomach uptake ([2]; 1 h post-injection) was 0.58 ± 0.20 % ID/g, the Tail uptake ([2]; 1 h post-injection) was 8.87 ± 4.26 % ID/g and the Testes uptake ([2]; 1 h post-injection) was 2.74 ± 0.38 % ID/g. For the same compound, the Thyroid uptake ([2]; 1 h post-injection) was 4.95 ± 0.79 % ID/g, the Tumor uptake ([2]; 1 h post-injection) was 11.2 ± 3.33 % ID/g and the “Tumor:Blood ratio” value ([2]; 1 h post-injection) was 0.42 ± 0.11. For the same compound, the “Tumor:Muscle ratio” value ([2]; 1 h post-injection) was 8.04 ± 1.69, the “Tumor:kidney ratio” value ([2]; 1 h post-injection) was 0.75 ± 0.17 and the Urine uptake ([2]; 1 h post-injection) was 3.97 ± 2.56 % ID/g. It also gave an Adrenal glands uptake ([2]; 3 h post-injection) of 4.46 ± 1.42 % ID/g, a Blood uptake ([2]; 3 h post-injection) of 21.2 ± 2.21 % ID/g and a Bone uptake ([2]; 3 h post-injection) of 1.54 ± 0.36 % ID/g. The Brain uptake ([2]; 3 h post-injection) was 0.30 ± 0.06 % ID/g, the Fat uptake ([2]; 3 h post-injection) was 2.47 ± 1.61 % ID/g and the Heart uptake ([2]; 3 h post-injection) was 4.85 ± 0.67 % ID/g. It also gave an Intestine uptake ([2]; 3 h post-injection) of 1.63 ± 0.18 % ID/g, a Kidneys uptake ([2]; 3 h post-injection) of 17.5 ± 3.83 % ID/g and a Lacrimal uptake ([2]; 3 h post-injection) of 1.44 ± 0.37 % ID/g. It also gave a Liver uptake ([2]; 3 h post-injection) of 2.80 ± 0.46 % ID/g, a Lungs uptake ([2]; 3 h post-injection) of 8.21 ± 1.21 % ID/g and a Muscle uptake ([2]; 3 h post-injection) of 1.33 ± 0.24 % ID/g. The Pancreas uptake ([2]; 3 h post-injection) was 1.96 ± 0.20 % ID/g, the Salivary uptake ([2]; 3 h post-injection) was 3.45 ± 0.40 % ID/g and the Seminal uptake ([2]; 3 h post-injection) was 1.15 ± 0.16 % ID/g. It also gave a Spleen uptake ([2]; 3 h post-injection) of 2.11 ± 0.44 % ID/g, a Stomach uptake ([2]; 3 h post-injection) of 0.79 ± 0.23 % ID/g and a Tail uptake ([2]; 3 h post-injection) of 6.86 ± 2.42 % ID/g. The Testes uptake ([2]; 3 h post-injection) was 3.02 ± 0.80 % ID/g, the Thyroid uptake ([2]; 3 h post-injection) was 3.72 ± 0.33 % ID/g and the Tumor uptake ([2]; 3 h post-injection) was 14.2 ± 1.99 % ID/g. For the same compound, the “Tumor:Blood ratio” value ([2]; 3 h post-injection) was 0.67 ± 0.07, the “Tumor:Muscle ratio” value ([2]; 3 h post-injection) was 10.8 ± 1.56 and the “Tumor:kidney ratio” value ([2]; 3 h post-injection) was 0.83 ± 0.11. For the same compound, the Urine uptake ([2]; 3 h post-injection) was 6.15 ± 3.78 % ID/g.
